US8563714B2, “Bridged spiro [2.4] heptane derivatives as ALX receptor and/or FPRL2 agonists” (Actelion Pharmaceuticals Ltd., priority 2009, dated 2013)

How the values were obtained:
human ALX receptor = molecular target: T1, human ALX receptor (Homo sapiens, UniProt P25090); assay: Intracellular calcium measurements (FLIPR), agonistic activity in HEK293-hALXR-Gα16 cells; format: cell-based; details: Fluo-4 calcium FLIPR, normalized to WKYMVm 10 nM
T1 construct: expressed in transfected cells; host or cells: HEK293 (HEK293-hALXR-Gα16)
T1 sequence (P25090 1-351): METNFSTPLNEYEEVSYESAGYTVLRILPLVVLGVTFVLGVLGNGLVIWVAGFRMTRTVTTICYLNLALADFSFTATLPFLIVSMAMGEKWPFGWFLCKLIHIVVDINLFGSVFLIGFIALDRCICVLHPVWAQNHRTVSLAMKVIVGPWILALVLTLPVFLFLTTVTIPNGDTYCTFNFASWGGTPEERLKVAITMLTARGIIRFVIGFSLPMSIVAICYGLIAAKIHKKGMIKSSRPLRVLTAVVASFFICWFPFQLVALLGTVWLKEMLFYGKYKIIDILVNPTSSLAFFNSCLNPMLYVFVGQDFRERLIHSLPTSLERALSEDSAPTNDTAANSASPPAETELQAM
Outline: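 HEK293 cells expressing hALXR and Gα16 were loaded with 1 μM Fluo-4 AM and 20 mM HEPES for 60 min at 37°C, then exposed to serially diluted compound. FLIPR fluorescence was read at ex 488/em 540 nm. Baseline-subtracted peak responses were normalized to 10 nM WKYMVm.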

human FPRL2 = molecular target: T2, human FPRL2 (Homo sapiens, UniProt P25089); assay: Intracellular calcium measurements (FLIPR), agonistic activity in HEK293-hFPRL2-Gα16 cells; format: cell-based; details: Fluo-4 calcium FLIPR, normalized to GLY14-Humanin 100 nM
T2 construct: expressed in transfected cells; host or cells: HEK293 (HEK293-hFPRL2-Gα16)
T2 sequence (P25089 1-353): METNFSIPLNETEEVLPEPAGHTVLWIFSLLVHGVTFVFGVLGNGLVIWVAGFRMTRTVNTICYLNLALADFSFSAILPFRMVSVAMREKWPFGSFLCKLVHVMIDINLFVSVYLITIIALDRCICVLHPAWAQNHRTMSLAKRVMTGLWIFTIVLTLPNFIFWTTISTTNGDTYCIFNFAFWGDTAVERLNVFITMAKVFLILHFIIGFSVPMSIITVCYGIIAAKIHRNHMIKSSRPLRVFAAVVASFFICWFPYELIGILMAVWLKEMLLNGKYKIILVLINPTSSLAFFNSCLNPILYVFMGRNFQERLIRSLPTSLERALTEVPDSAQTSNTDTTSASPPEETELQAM
Outline: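 Peak values after baseline subtraction are expressed relative to 100 nM Gly14-Humanin; compounds diluted in assay buffer from 10 mM DMSO stocks.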

Compound	EC50 (human ALX receptor)	EC50 (human FPRL2)
O=C(NCCCCN1CCCC1)[C@H]1[C@H](C(=O)NCc2cc(F)cc(C(F)(F)F)c2)[C@@H]2C=C[C@H]1C21CC1 (racemic) [Example 362, (5R*)—N^5-(3-Fluoro-5-trifluoromethylphenyl-methyl)-(6R*)—N^6-(4-pyrrolidino-butyl)-(4S*,7R*)-[4,7-ethenylene-spiro[2.4]heptane]-5,6-dicarboxamide]	9090 nM	306 nM
CC(=O)c1ccc(CNC(=O)[C@H]2[C@H](C(=O)NCCCCN3CCCC3)[C@H]3C=C[C@@H]2C32CC2)cc1 (racemic) [Example 363, (5R*)—N^5-(4-Acetylphenyl-methyl)-(6R*)—N^6-(4-pyrrolidino-butyl)-(4S*,7R*)-[4,7-ethenylene-spiro[2.4]heptane]-5,6-dicarboxamide]	9740 nM	570 nM
O=C(NCCCCN1CCCC1)[C@H]1[C@H](C(=O)NCc2cc(C(F)(F)F)ccc2Cl)[C@@H]2C=C[C@H]1C21CC1 (racemic) [Example 364, (5R*)—N^5-(2-Chloro-5-trifluoromethylphenyl-methyl)-(6R*)—N^6-(4-pyrrolidino-butyl)-(4S*,7R*)-[4,7-ethenylene-spiro[2.4]heptane]-5,6-dicarboxamide]	9970 nM	372 nM
O=C(NCCCCN1CCCC1)[C@H]1[C@H](C(=O)NCc2cc(C(F)(F)F)ccc2F)[C@@H]2C=C[C@H]1C21CC1 (racemic) [Example 365, (5R*)—N^5-(2-Fluoro-5-trifluoromethylphenyl-methyl)-(6R*)—N^6-(4-pyrrolidino-butyl)-(4S*,7R*)-[4,7-ethenylene-spiro[2.4]heptane]-5,6-dicarboxamide]	9970 nM	350 nM
O=C(NCCCCN1CCCC1)[C@H]1[C@H](C(=O)NCc2ccc(F)c(C(F)(F)F)c2)[C@@H]2C=C[C@H]1C21CC1 (racemic) [Example 366, (5R*)—N^5-(4-Fluoro-3-trifluoromethylphenyl-methyl)-(6R*)—N^6-(4-pyrrolidino-butyl)-(4S*,7R*)-[4,7-ethenylene-spiro[2.4]heptane]-5,6-dicarboxamide]	10000 nM	366 nM
O=C(NCCCCN1CCCC1)[C@H]1[C@H](C(=O)NCc2cc(Cl)nc(Cl)c2)[C@@H]2C=C[C@H]1C21CC1 (racemic) [Example 367, (5R*)—N^5-[(2,6-Dichloropyridin-4-yl)methyl]-(6R*)—N^6-(4-pyrrolidino-butyl)-(4S*,7R*)-[4,7-ethenylene-spiro[2.4]heptane]-5,6-dicarboxamide]	10600 nM	644 nM
Cc1ccc(C)c(CNC(=O)[C@H]2[C@H](C(=O)NCCCCN3CCCC3)[C@H]3C=C[C@@H]2C32CC2)c1 (racemic) [Example 368, (5R*)—N^5-(2,5-Dimethylphenyl-methyl)-(6R*)—N^6-(4-pyrrolidino-butyl)-(4S*,7R*)-[4,7-ethenylene-spiro[2.4]heptane]-5,6-dicarboxamide]	11100 nM	255 nM
Cc1nc(NC(=O)[C@H]2[C@H](C(=O)NCCCCN3CCCC3)[C@H]3C=C[C@@H]2C32CC2)sc1C (racemic) [Example 369, (5R*)—N^5-(4,5-Dimethyl-thiazol-2-yl)-(6R*)—N^6-(4-pyrrolidino-butyl)-(4S*,7R*)-[4,7-ethenylene-spiro[2.4]heptane]-5,6-dicarboxamide]	> 25000 nM	204 nM
COc1ccc(C)cc1CNC(=O)[C@H]1[C@H](C(=O)NCCCCN2CCCC2)[C@H]2C=C[C@@H]1C21CC1 (racemic) [Example 370, (5R*)—N^5-(2-Methoxy-5-methylphenyl-methyl)-(6R*)—N^6-(4-pyrrolidino-butyl)-(4S*,7R*)-[4,7-ethenylene-spiro[2.4]heptane]-5,6-dicarboxamide]	> 25000 nM	180 nM
O=C(NCCCCN1CCCC1)[C@H]1[C@H](C(=O)NCc2c(F)ccc(F)c2Cl)[C@@H]2C=C[C@H]1C21CC1 (racemic) [Example 371, (5R*)—N^5-(2-Chloro-3,6-difluorophenyl-methyl)-(6R*)—N^6-(4-pyrrolidino-butyl)-(4S*,7R*)-[4,7-ethenylene-spiro[2.4]heptane]-5,6-dicarboxamide]	> 25000 nM	271 nM
CC(C)Oc1ccccc1CNC(=O)[C@H]1[C@H](C(=O)NCCCCN2CCCC2)[C@H]2C=C[C@@H]1C21CC1 (racemic) [Example 372, (5R*)—N^5-(2-Isopropoxyphenyl-methyl)-(6R*)—N^6-(4-pyrrolidino-butyl)-(4S*,7R*)-[4,7-ethenylene-spiro[2.4]heptane]-5,6-dicarboxamide]	> 25000 nM	389 nM
Cc1ccc(F)c(CNC(=O)[C@H]2[C@H](C(=O)NCCCCN3CCCC3)[C@H]3C=C[C@@H]2C32CC2)c1Cl (racemic) [Example 373, (5R*)—N^5-(2-Chloro-6-fluoro-3-methylphenyl-methyl)-(6R*)—N^6-(4-pyrrolidino-butyl)-(4S*,7R*)-[4,7-ethenylene-spiro[2.4]heptane]-5,6-dicarboxamide]	> 25000 nM	478 nM
COc1ccc(CNC(=O)[C@H]2[C@H](C(=O)NCCCCN3CCCC3)[C@H]3C=C[C@@H]2C32CC2)cc1Cl (racemic) [Example 374, (5R*)—N^5-(3-Chloro-4-methoxyphenyl-methyl)-(6R*)—N^6-(4-pyrrolidino-butyl)-(4S*,7R*)-[4,7-ethenylene-spiro[2.4]heptane]-5,6-dicarboxamide]	2620 nM	237 nM
COc1ccc(CNC(=O)[C@H]2[C@H](C(=O)NCCCCN3CCCC3)[C@H]3C=C[C@@H]2C32CC2)cc1OC (racemic) [Example 375, (5R*)—N^5-(3,4-Dimethoxyphenyl-methyl)-(6R*)—N^6-(4-pyrrolidino-butyl)-(4S*,7R*)-[4,7-ethenylene-spiro[2.4]heptane]-5,6-dicarboxamide]	9050 nM	443 nM
COc1ccc(CNC(=O)[C@H]2[C@H](C(=O)NCCCCN3CCCC3)[C@H]3C=C[C@@H]2C32CC2)c(OC)c1 (racemic) [Example 376, (5R*)—N^5-(2,4-Dimethoxyphenyl-methyl)-(6R*)—N^6-(4-pyrrolidino-butyl)-(4S*,7R*)-[4,7-ethenylene-spiro[2.4]heptane]-5,6-dicarboxamide]	10300 nM	334 nM
COc1ccc(CCNC(=O)[C@H]2[C@H](C(=O)NCCCCN3CCCC3)[C@H]3C=C[C@@H]2C32CC2)cc1OC (racemic) [Example 377, (5R*)—N^5-(2-(3,4-Dimethoxyphenyl)ethyl)-(6R*)—N^6-(4-pyrrolidino-butyl)-(4S*,7R*)-[4,7-ethenylene-spiro[2.4]heptane]-5,6-dicarboxamide]	> 25000 nM	417 nM
COc1ccc(CCNC(=O)[C@H]2[C@H](C(=O)NCCCCN3CCCC3)[C@H]3C=C[C@@H]2C32CC2)cc1 (racemic) [Example 378, (5R*)—N^5-(2-(4-Methoxyphenyl)ethyl)-(6R*)—N^6-(4-pyrrolidino-butyl)-(4S*,7R*)-[4,7-ethenylene-spiro[2.4]heptane]-5,6-dicarboxamide]	8610 nM	74 nM
O=C(NCCCCN1CCCC1)[C@H]1[C@H](C(=O)NCCc2ccc(Br)cc2)[C@@H]2C=C[C@H]1C21CC1 (racemic) [Example 379, (5R*)—N^5-(2-(4-Bromophenyl)ethyl)-(6R*)—N^6-(4-pyrrolidino-butyl)-(4S*,7R*)-[4,7-ethenylene-spiro[2.4]heptane]-5,6-dicarboxamide]	8810 nM	6.6 nM
Cc1ccc(CCNC(=O)[C@H]2[C@H](C(=O)NCCCCN3CCCC3)[C@H]3C=C[C@@H]2C32CC2)cc1C (racemic) [Example 380, (5R*)—N^5-(2-(3,4-Dimethylphenyl)ethyl)-(6R*)—N^6-(4-pyrrolidino-butyl)-(4S*,7R*)-[4,7-ethenylene-spiro[2.4]heptane]-5,6-dicarboxamide]	> 25000 nM	103 nM
O=C(NCCCCN1CCCC1)[C@H]1[C@H](C(=O)NCCc2ccc3c(c2)OCO3)[C@@H]2C=C[C@H]1C21CC1 (racemic) [Example 383, (5R*)—N^5-(2-(Benzo[d][1,3]dioxol-5-yl)ethyl)-(6R*)—N^6-(4-pyrrolidino-butyl)-(4S*,7R*)-[4,7-ethenylene-spiro[2.4]heptane]-5,6-dicarboxamide]	7680 nM	29 nM
